Test results reported in US12618095B2, “Medium for Bacillus cereus group detection” (SHIMADZU DIAGNOSTICS CORPORATION, priority 2020, dated 2026).

Key:
[1] = test system: B. thuringiensis; experiment: Test Example 9: concentration of amphotericin B; assay type: cell-based; conditions: NBRC101235
[2] = test system: C. albicans; experiment: Test Example 9: concentration of amphotericin B

Measured: Number of colonies

C[C@@H]1[C@H](O)[C@@H](C)/C=C/C=C/C=C/C=C/C=C/C=C/C=C/[C@H](O[C@@H]2O[C@H](C)[C@@H](O)[C@H](N)[C@@H]2O)C[C@@H]2O[C@](O)(C[C@@H](O)C[C@@H](O)[C@H](O)CC[C@@H](O)C[C@@H](O)CC(=O)O[C@H]1C)C[C@H](O)[C@H]2C(=O)O [Amphotericin B]
−: [2]; ATCC10231, Amphotericin B 0.1 mg, 24 hours, 10^2 cfu/mL | [2]; ATCC10231, Amphotericin B 0.1 mg, 24 hours, 10^3 cfu/mL | [2]; ATCC10231, Amphotericin B 0.1 mg, 24 hours, 10^4 cfu/mL | [2]; ATCC10231, Amphotericin B 0.1 mg, 24 hours, 10^5 cfu/mL | [2]; ATCC10231, Amphotericin B 0.1 mg, 44 hours, 10^2 cfu/mL | [2]; ATCC10231, Amphotericin B 0.1 mg, 44 hours, 10^3 cfu/mL | [2]; ATCC10231, Amphotericin B 0.1 mg, 44 hours, 10^4 cfu/mL | [2]; ATCC10231, Amphotericin B 1.0 mg, 24 hours, 10^2 cfu/mL | [2]; ATCC10231, Amphotericin B 1.0 mg, 24 hours, 10^3 cfu/mL | [2]; ATCC10231, Amphotericin B 1.0 mg, 24 hours, 10^4 cfu/mL | [2]; ATCC10231, Amphotericin B 1.0 mg, 24 hours, 10^5 cfu/mL | [2]; ATCC10231, Amphotericin B 1.0 mg, 44 hours, 10^2 cfu/mL | [2]; ATCC10231, Amphotericin B 1.0 mg, 44 hours, 10^3 cfu/mL | [2]; ATCC10231, Amphotericin B 1.0 mg, 44 hours, 10^4 cfu/mL | [2]; ATCC10231, Amphotericin B 1.0 mg, 44 hours, 10^5 cfu/mL | [2]; ATCC10231, Amphotericin B 10 mg, 24 hours, 10^2 cfu/mL | [2]; ATCC10231, Amphotericin B 10 mg, 24 hours, 10^3 cfu/mL | [2]; ATCC10231, Amphotericin B 10 mg, 24 hours, 10^4 cfu/mL | [2]; ATCC10231, Amphotericin B 10 mg, 24 hours, 10^5 cfu/mL | [2]; ATCC10231, Amphotericin B 10 mg, 44 hours, 10^2 cfu/mL | [2]; ATCC10231, Amphotericin B 10 mg, 44 hours, 10^3 cfu/mL | [2]; ATCC10231, Amphotericin B 10 mg, 44 hours, 10^4 cfu/mL | [2]; ATCC10231, Amphotericin B 10 mg, 44 hours, 10^5 cfu/mL | [2]; ATCC14053, Amphotericin B 0.1 mg, 24 hours, 10^2 cfu/mL | [2]; ATCC14053, Amphotericin B 0.1 mg, 24 hours, 10^3 cfu/mL | [2]; ATCC14053, Amphotericin B 0.1 mg, 24 hours, 10^4 cfu/mL | [2]; ATCC14053, Amphotericin B 0.1 mg, 24 hours, 10^5 cfu/mL | [2]; ATCC14053, Amphotericin B 0.1 mg, 44 hours, 10^2 cfu/mL | [2]; ATCC14053, Amphotericin B 0.1 mg, 44 hours, 10^3 cfu/mL | [2]; ATCC14053, Amphotericin B 0.1 mg, 44 hours, 10^4 cfu/mL | [2]; ATCC14053, Amphotericin B 1.0 mg, 24 hours, 10^2 cfu/mL | [2]; ATCC14053, Amphotericin B 1.0 mg, 24 hours, 10^3 cfu/mL | [2]; ATCC14053, Amphotericin B 1.0 mg, 24 hours, 10^4 cfu/mL | [2]; ATCC14053, Amphotericin B 1.0 mg, 24 hours, 10^5 cfu/mL | [2]; ATCC14053, Amphotericin B 1.0 mg, 44 hours, 10^2 cfu/mL | [2]; ATCC14053, Amphotericin B 1.0 mg, 44 hours, 10^3 cfu/mL | [2]; ATCC14053, Amphotericin B 1.0 mg, 44 hours, 10^4 cfu/mL | [2]; ATCC14053, Amphotericin B 1.0 mg, 44 hours, 10^5 cfu/mL | [2]; ATCC14053, Amphotericin B 10 mg, 24 hours, 10^2 cfu/mL | [2]; ATCC14053, Amphotericin B 10 mg, 24 hours, 10^3 cfu/mL | [2]; ATCC14053, Amphotericin B 10 mg, 24 hours, 10^4 cfu/mL | [2]; ATCC14053, Amphotericin B 10 mg, 24 hours, 10^5 cfu/mL | [2]; ATCC14053, Amphotericin B 10 mg, 44 hours, 10^2 cfu/mL | [2]; ATCC14053, Amphotericin B 10 mg, 44 hours, 10^3 cfu/mL | [2]; ATCC14053, Amphotericin B 10 mg, 44 hours, 10^4 cfu/mL | [2]; ATCC14053, Amphotericin B 10 mg, 44 hours, 10^5 cfu/mL
28: [1]; Amphotericin B 0.1 mg, 24 hours, 10^2 cfu/mL | [1]; Amphotericin B 0.1 mg, 44 hours, 10^2 cfu/mL
39: [1]; Amphotericin B 1.0 mg, 24 hours, 10^2 cfu/mL | [1]; Amphotericin B 1.0 mg, 44 hours, 10^2 cfu/mL
38: [1]; Amphotericin B 10 mg, 24 hours, 10^2 cfu/mL | [1]; Amphotericin B 10 mg, 44 hours, 10^2 cfu/mL
+: [1]; Amphotericin B 0.1 mg, 24 hours, 10^3 cfu/mL | [1]; Amphotericin B 0.1 mg, 24 hours, 10^4 cfu/mL | [1]; Amphotericin B 0.1 mg, 24 hours, 10^5 cfu/mL | [1]; Amphotericin B 0.1 mg, 44 hours, 10^3 cfu/mL | [1]; Amphotericin B 0.1 mg, 44 hours, 10^4 cfu/mL | [1]; Amphotericin B 0.1 mg, 44 hours, 10^5 cfu/mL | [1]; Amphotericin B 1.0 mg, 24 hours, 10^3 cfu/mL | [1]; Amphotericin B 1.0 mg, 24 hours, 10^4 cfu/mL | [1]; Amphotericin B 1.0 mg, 24 hours, 10^5 cfu/mL | [1]; Amphotericin B 1.0 mg, 44 hours, 10^3 cfu/mL | [1]; Amphotericin B 1.0 mg, 44 hours, 10^4 cfu/mL | [1]; Amphotericin B 1.0 mg, 44 hours, 10^5 cfu/mL | [1]; Amphotericin B 10 mg, 24 hours, 10^3 cfu/mL | [1]; Amphotericin B 10 mg, 24 hours, 10^4 cfu/mL | [1]; Amphotericin B 10 mg, 24 hours, 10^5 cfu/mL | [1]; Amphotericin B 10 mg, 44 hours, 10^3 cfu/mL | [1]; Amphotericin B 10 mg, 44 hours, 10^4 cfu/mL | [1]; Amphotericin B 10 mg, 44 hours, 10^5 cfu/mL
